Read-outs that look alike come from different tables or passages of the source.
Test system: MTB
Assay type: cell-based, Mycobacterium tuberculosis

With `CCCCCCCCCC(=O)O[C@@H]1[C@H](OC)[C@@H]([C@@H](O[C@H]2OC(C(=O)N[C@H]3CCC[C@@H](C)NC3=O)=C[C@H](O)[C@@H]2O)C(N)=O)O[C@H]1n1ccc(=O)[nH]c1=O` [SQ641] the Frequency of mutation was “zero”, the Resistant colonies was “no colonies” and the Frequency of mutation (second experiment, 8 μg/ml SQ641, 1 μg/ml RIF) was “zero”.
